# Key:
# Assay in all cases: NCI-60 single-dose anticancer screen
# Type in all cases: cell-based, human
# [1] = tested on: OVCAR-5 (Ovarian cancer); conditions: 10 µM single dose
# Description: (§1) Six compounds were selected by the NCI, according to NCI’s DTP selection guidelines, for evaluation of their anticancer activity at a single-dose of 10 µM against 60 human tumours cell lines.
# (§2) In vitro cytotoxicity was performed in NCI according to reported method.
# [2] = tested on: NCI/ADR-RES (Ovarian cancer); conditions: 10 µM single dose
# Description: as §1, §2
# [3] = tested on: SNB-75 (CNS cancer); conditions: 10 µM single dose
# Description: as §1, §2
# [4] = tested on: HL-60(TB) (Leukaemia); conditions: 10 µM single dose; for inhibition at 10 µM: Homo sapiens, read-out: cell growth inhibition
# Description: as §1, §2
# [5] = tested on: OVCAR-4 (Ovarian cancer); conditions: 10 µM single dose
# Description: as §1, §2
# [6] = tested on: OVCAR-3 (Ovarian cancer); conditions: 10 µM single dose
# Description: as §1, §2
# [7] = tested on: SW-620 (Colon cancer); conditions: 10 µM single dose
# Description: as §1, §2
# [8] = tested on: NCI-H522 (Non-small cell lung cancer); conditions: 10 µM single dose
# Description: as §1, §2
# [9] = tested on: KM12 (Colon cancer); conditions: 10 µM single dose
# Description: as §1, §2
# [10] = tested on: SK-MEL-2 (Melanoma); conditions: 10 µM single dose
# Description: as §1, §2
# [11] = tested on: CAKI-1 (Renal cancer); conditions: 10 µM single dose
# Description: as §1, §2
# [12] = tested on: SN12C (Renal cancer); conditions: 10 µM single dose
# Description: as §1, §2
# [13] = tested on: M14 (Melanoma); conditions: 10 µM single dose
# Description: as §1, §2
# [14] = tested on: U251 (CNS cancer); conditions: 10 µM single dose
# Description: as §1, §2
# [15] = tested on: HCC-2998 (Colon cancer); conditions: 10 µM single dose
# Description: as §1, §2
# [16] = tested on: BT-549 (Breast cancer); conditions: 10 µM single dose
# Description: as §1, §2
# [17] = tested on: MDA-MB-435 (Melanoma); conditions: 10 µM single dose
# Description: as §1, §2
# [18] = tested on: UACC-257 (Melanoma); conditions: 10 µM single dose
# Description: as §1, §2
# [19] = tested on: EKVX (Non-small cell lung cancer); conditions: 10 µM single dose
# Description: as §1, §2
# [20] = tested on: HOP-92 (Non-small cell lung cancer); conditions: 10 µM single dose; for inhibition at 10 µM: Homo sapiens, read-out: cell growth inhibition
# Description: as §1, §2
# [21] = tested on: NCI-H322M (Non-small cell lung cancer); conditions: 10 µM single dose
# Description: as §1, §2
# [22] = tested on: CCRF-CEM (Leukaemia); conditions: 10 µM single dose; for inhibition at 10 µM: Homo sapiens, read-out: cell growth inhibition
# Description: as §1, §2
# [23] = tested on: SK-MEL-5 (Melanoma); conditions: 10 µM single dose
# Description: as §1, §2
# [24] = tested on: SF-539 (CNS cancer); conditions: 10 µM single dose
# Description: as §1, §2
# [25] = tested on: TK-10 (Renal cancer); conditions: 10 µM single dose
# Description: as §1, §2
# [26] = tested on: SF-295 (CNS cancer); conditions: 10 µM single dose
# Description: as §1, §2
# [27] = tested on: HS 578T (Breast cancer); conditions: 10 µM single dose
# Description: as §1, §2
# [28] = tested on: OVCAR-8 (Ovarian cancer); conditions: 10 µM single dose
# Description: as §1, §2
# [29] = tested on: UO-31 (Renal cancer); conditions: 10 µM single dose
# Description: as §1, §2
# [30] = tested on: HT29 (Colon cancer); conditions: for cell growth promotion: 10 µM single dose
# Description: as §1, §2
# [31] = tested on: NCI-H460 (Non-small cell lung cancer); conditions: 10 µM single dose
# Description: as §1, §2
# [32] = tested on: HCT-15 (Colon cancer); conditions: 10 µM single dose
# Description: as §1, §2
# [33] = tested on: NCI-H23 (Non-small cell lung cancer); conditions: 10 µM single dose
# Description: as §1, §2
# [34] = tested on: SNB-19 (CNS cancer); conditions: 10 µM single dose
# Description: as §1, §2
# [35] = tested on: K-562 (Leukaemia); conditions: for cell growth promotion: 10 µM single dose; for inhibition at 10 µM: Homo sapiens, K562, 10 µM single dose, read-out: cell growth inhibition
# Description: as §1, §2
# [36] = tested on: IGROV1 (Ovarian cancer); conditions: 10 µM single dose
# Description: as §1, §2
# [37] = tested on: SR (Leukaemia); conditions: 10 µM single dose; for inhibition at 10 µM: Homo sapiens, read-out: cell growth inhibition
# Description: as §1, §2
# [38] = tested on: UACC-62 (Melanoma); conditions: 10 µM single dose
# Description: as §1, §2
# [39] = tested on: COLO 205 (Colon cancer); conditions: 10 µM single dose
# Description: as §1, §2
# [40] = tested on: MALME-3M (Melanoma); conditions: 10 µM single dose
# Description: as §1, §2
# [41] = tested on: SK-MEL-28 (Melanoma); conditions: 10 µM single dose
# Description: as §1, §2
# [42] = tested on: RPMI-8226 (Leukaemia); conditions: 10 µM single dose
# Description: as §1, §2
# [43] = tested on: ACHN (Renal cancer); conditions: 10 µM single dose
# Description: as §1, §2
# [44] = tested on: SF-268 (CNS cancer); conditions: 10 µM single dose
# Description: as §1, §2
# [45] = tested on: A549/ATCC (Non-small cell lung cancer); conditions: 10 µM single dose
# Description: as §1, §2
# [46] = tested on: MDA-MB-468 (Breast cancer); conditions: 10 µM single dose
# Description: as §1, §2
# [47] = tested on: A498 (Renal cancer); conditions: 10 µM single dose
# Description: as §1, §2
smiles,measurement,setting,value
"COc1cc(C=CC(=O)c2ccc(N3CCNCC3)cc2)ccc1F [Ve, 3-(4-Fluoro-3-methoxyphenyl)-1-(4-(piperazin-1-yl)phenyl) prop-2-en-1-one]",cell growth promotion,[1],121.73%
same,cell growth promotion,[2],79.31%
same,cell growth promotion,[3],89.05%
same,cell growth promotion,[4],28.91%
same,inhibition at 10 µM,[4],71.1%
same,cell growth promotion,[5],68.87%
same,cell growth promotion,[6],70.18%
same,cell growth promotion,[7],50.69%
same,cell growth promotion,[8],61.19%
same,cell growth promotion,[9],60.47%
same,cell growth promotion,[10],85.44%
same,cell growth promotion,[11],79.37%
same,cell growth promotion,[12],57.67%
same,cell growth promotion,[13],78.43%
same,cell growth promotion,[14],67.21%
same,cell growth promotion,[15],100.21%
same,cell growth promotion,[16],66.42%
same,cell growth promotion,[17],80.14%
same,cell growth promotion,[18],76.08%
same,cell growth promotion,[19],97.12%
same,cell growth promotion,[20],55.00%
same,inhibition at 10 µM,[20],45%
same,cell growth promotion,[21],73.01%
same,cell growth promotion,[22],22.15%
same,inhibition at 10 µM,[22],77.8%
same,cell growth promotion,[23],79.33%
same,cell growth promotion,[24],95.87%
same,cell growth promotion,[25],101.24%
same,cell growth promotion,[26],95.92%
same,cell growth promotion,[27],91.26%
same,cell growth promotion,[28],57.23%
same,cell growth promotion,[29],58.35%
same,cell growth promotion,[30],49.97%
same,cell growth promotion,[31],97.07%
same,cell growth promotion,[32],43.16%
same,cell growth promotion,[33],92.63%
same,cell growth promotion,[34],59.87%
same,cell growth promotion,[35],12.37%
same,inhibition at 10 µM,[35],87.6%
same,cell growth promotion,[36],59.94%
same,cell growth promotion,[37],46.22%
same,inhibition at 10 µM,[37],53.8%
same,cell growth promotion,[38],80.13%
same,cell growth promotion,[39],83.00%
same,cell growth promotion,[40],112.40%
same,cell growth promotion,[41],106.02%
same,cell growth promotion,[42],49.59%
same,cell growth promotion,[43],68.11%
same,cell growth promotion,[44],94.03%
same,cell growth promotion,[45],67.25%
same,cell growth promotion,[46],46.48%
same,cell growth promotion,[47],100.79%
"O=C(C=Cc1ccncc1F)c1ccc(N2CCNCC2)cc1 [Vf, 3-(3-Fluoropyridin-4-yl)-1-(4-(piperazin-1-yl)phenyl)prop-2-en-1-one]",cell growth promotion,[1],111.84%
same,cell growth promotion,[2],107.53%
same,cell growth promotion,[3],89.08%
same,cell growth promotion,[4],79.28%
same,inhibition at 10 µM,[4],20.7%
same,cell growth promotion,[5],110.55%
same,cell growth promotion,[6],106.22%
same,cell growth promotion,[7],105.59%
same,cell growth promotion,[8],78.82%
same,cell growth promotion,[9],105.34%
same,cell growth promotion,[10],91.63%
same,cell growth promotion,[11],86.18%
same,cell growth promotion,[12],99.00%
same,cell growth promotion,[13],95.53%
same,cell growth promotion,[14],95.03%
same,cell growth promotion,[15],100.88%
same,cell growth promotion,[16],90.81%
same,cell growth promotion,[17],102.37%
same,cell growth promotion,[18],70.86%
same,cell growth promotion,[19],99.11%
same,cell growth promotion,[20],82.34%
same,inhibition at 10 µM,[20],17.7%
same,cell growth promotion,[21],96.26%
same,cell growth promotion,[22],78.16%
same,inhibition at 10 µM,[22],21.8%
same,cell growth promotion,[23],101.11%
same,cell growth promotion,[24],101.29%
same,cell growth promotion,[25],95.83%
same,cell growth promotion,[26],101.95%
same,cell growth promotion,[27],99.19%
same,cell growth promotion,[28],95.35%
same,cell growth promotion,[29],89.78%
same,cell growth promotion,[30],86.42%
same,inhibition at 10 µM,"[30]; Homo sapiens, HT-29, 10 µM single dose, read-out: cell growth inhibition",13.8%
same,cell growth promotion,[31],106.01%
same,cell growth promotion,[32],111.39%
same,cell growth promotion,[33],102.52%
same,cell growth promotion,[34],96.07%
same,cell growth promotion,[35],85.84%
same,inhibition at 10 µM,[35],14.2%
same,cell growth promotion,[36],97.17%
same,cell growth promotion,[37],92.99%
same,inhibition at 10 µM,[37],7.01%
same,cell growth promotion,[38],92.01%
same,cell growth promotion,[39],111.89%
same,cell growth promotion,[40],99.98%
same,cell growth promotion,[41],115.56%
same,cell growth promotion,[42],97.33%
same,cell growth promotion,[43],113.06%
same,cell growth promotion,[44],100.92%
same,cell growth promotion,[45],78.75%
same,cell growth promotion,[46],100.32%
same,cell growth promotion,[47],97.22%

# — PMC7758046, “Novel piperazine–chalcone hybrids and related pyrazoline analogues targeting VEGFR-2 kinase; design, synthesis, molecular docking studies, and anticancer evaluation” (Journal of Enzyme Inhibition and Medicinal Chemistry, 2020)
